# In ChEMBL document CHEMBL3885861, “Open TG-GATES”:
# Species: Rattus norvegicus
# Assay: Open TG-GATES - Regimen: Single
# Format: toxicity, organism-based, Sprague-Dawley
# Set-up: regimen Single, gender Male, age 6 weeks
# Conditions: in vivo, po, 30 mg/kg, route gavage, dose level Middle; for APTT / Bas / Eos / Fbg / Hb / Ht / Lym / MCH / MCHC / MCV / Mono / Neu / PT / Plat / RBC / Ret / WBC: tissue Blood; for KIDNEY_L / KIDNEY_R / KIDNEY_TOTAL: tissue Kidney; for LIVER: tissue Liver; for A/G / ALP / ALT / AST / BUN / CRE / Ca / Cl / DBIL / GLC / IP / K / LDH / Na / PL / RALB / TBIL / TC / TG / TP / gamma-GTP: tissue Plasma
smiles,measurement,setting,value
CC1=C(/C=C/C(C)=C/C=C/C(C)=C/CO)C(C)(C)CCC1 [RETINOL],TERMINAL_BW,3 h,204 g
same,APTT,3 h,21.5 s
same,Bas,3 h,0%
same,Eos,3 h,1.2%
same,Fbg,3 h,295.2 mg/dL
same,Hb,3 h,13.2 g/dL
same,Ht,3 h,38.6%
same,Lym,3 h,77.6%
same,MCH,3 h,21.6 pg
same,MCHC,3 h,34.1%
same,MCV,3 h,63.4 fL
same,Mono,3 h,3%
same,Neu,3 h,17.6%
same,PT,3 h,15.9 s
same,Plat,3 h,124.8 x10_4/uL
same,RBC,3 h,609.8 x10_4/ul
same,Ret,3 h,8.3%
same,WBC,3 h,84.2 x10_2/uL
same,KIDNEY_L,3 h,0.9 g
same,KIDNEY_R,3 h,0.9 g
same,KIDNEY_TOTAL,3 h,1.8 g
same,LIVER,3 h,9.3 g
same,A/G,3 h,1.3
same,ALP,3 h,1939.2 IU/L
same,ALT,3 h,48.2 IU/L
same,AST,3 h,80 IU/L
same,BUN,3 h,13.4 mg/dL
same,CRE,3 h,0.1 mg/dL
same,Ca,3 h,11.3 mg/dL
same,Cl,3 h,106.2 meq/L
same,DBIL,3 h,0 mg/dL
same,GLC,3 h,176.4 mg/dL
same,IP,3 h,9 mg/dL
same,K,3 h,4.2 meq/L
same,LDH,3 h,231 IU/L
same,Na,3 h,141.2 meq/L
same,PL,3 h,165.4 mg/dL
same,RALB,3 h,3.1 g/dL
same,TBIL,3 h,0.004 mg/dL
same,TC,3 h,83.2 mg/dL
same,TG,3 h,153.8 mg/dL
same,TP,3 h,5.7 g/dL
same,gamma-GTP,3 h,3.6 IU/L
same,TERMINAL_BW,6 h,195.5 g
same,APTT,6 h,21.5 s
same,Bas,6 h,0%
same,Eos,6 h,0.8%
same,Fbg,6 h,302.4 mg/dL
same,Hb,6 h,13.4 g/dL
same,Ht,6 h,38.7%
same,Lym,6 h,77.8%
same,MCH,6 h,21.1 pg
same,MCHC,6 h,34.5%
same,MCV,6 h,61.2 fL
same,Mono,6 h,2.8%
same,Neu,6 h,17.8%
same,PT,6 h,15.5 s
same,Plat,6 h,119.2 x10_4/uL
same,RBC,6 h,633.8 x10_4/ul
same,Ret,6 h,7.3%
same,WBC,6 h,101.4 x10_2/uL
same,KIDNEY_L,6 h,0.9 g
same,KIDNEY_R,6 h,0.9 g
same,KIDNEY_TOTAL,6 h,1.8 g
same,LIVER,6 h,8.2 g
same,A/G,6 h,1.2
same,ALP,6 h,1586.8 IU/L
same,ALT,6 h,36.2 IU/L
same,AST,6 h,72.2 IU/L
same,BUN,6 h,8.8 mg/dL
same,CRE,6 h,0.1 mg/dL
same,Ca,6 h,10.8 mg/dL
same,Cl,6 h,107.6 meq/L
same,DBIL,6 h,0.004 mg/dL
same,GLC,6 h,176.8 mg/dL
same,IP,6 h,9.8 mg/dL
same,K,6 h,4.4 meq/L
same,LDH,6 h,224.8 IU/L
same,Na,6 h,142 meq/L
same,PL,6 h,146.2 mg/dL
same,RALB,6 h,3.1 g/dL
same,TBIL,6 h,0.01 mg/dL
same,TC,6 h,74.6 mg/dL
same,TG,6 h,119.6 mg/dL
same,TP,6 h,5.6 g/dL
same,gamma-GTP,6 h,1 IU/L
same,TERMINAL_BW,9 h,195.6 g
same,APTT,9 h,21.7 s
same,Bas,9 h,0%
same,Eos,9 h,1%
same,Fbg,9 h,317 mg/dL
same,Hb,9 h,13.3 g/dL
same,Ht,9 h,38.5%
same,Lym,9 h,75.2%
same,MCH,9 h,21.3 pg
same,MCHC,9 h,34.5%
same,MCV,9 h,61.8 fL
same,Mono,9 h,2.8%
same,Neu,9 h,21%
same,PT,9 h,15.5 s
same,Plat,9 h,115.9 x10_4/uL
same,RBC,9 h,623.4 x10_4/ul
same,Ret,9 h,7.7%
same,WBC,9 h,94.3 x10_2/uL
same,KIDNEY_L,9 h,0.9 g
same,KIDNEY_R,9 h,0.9 g
same,KIDNEY_TOTAL,9 h,1.8 g
same,LIVER,9 h,8.3 g
same,A/G,9 h,1.3
same,ALP,9 h,1640.4 IU/L
same,ALT,9 h,33 IU/L
same,AST,9 h,67.4 IU/L
same,BUN,9 h,10 mg/dL
same,CRE,9 h,0.2 mg/dL
same,Ca,9 h,11 mg/dL
same,Cl,9 h,106 meq/L
same,DBIL,9 h,0.008 mg/dL
same,GLC,9 h,181 mg/dL
same,IP,9 h,11.1 mg/dL
same,K,9 h,4.2 meq/L
same,LDH,9 h,253.4 IU/L
same,Na,9 h,141.2 meq/L
same,PL,9 h,136 mg/dL
same,RALB,9 h,3.1 g/dL
same,TBIL,9 h,0.014 mg/dL
same,TC,9 h,72 mg/dL
same,TG,9 h,82.6 mg/dL
same,TP,9 h,5.5 g/dL
same,gamma-GTP,9 h,1 IU/L
same,TERMINAL_BW,24 h,208 g
same,APTT,24 h,21.8 s
same,Bas,24 h,0%
same,Eos,24 h,0.6%
same,Fbg,24 h,303.2 mg/dL
same,Hb,24 h,13.1 g/dL
same,Ht,24 h,38.6%
same,Lym,24 h,79.4%
same,MCH,24 h,21.5 pg
same,MCHC,24 h,34.1%
same,MCV,24 h,63.1 fL
same,Mono,24 h,3%
same,Neu,24 h,16.2%
same,PT,24 h,15.9 s
same,Plat,24 h,124 x10_4/uL
same,RBC,24 h,612.6 x10_4/ul
same,Ret,24 h,7.8%
same,WBC,24 h,76.3 x10_2/uL
same,KIDNEY_L,24 h,0.9 g
same,KIDNEY_R,24 h,0.9 g
same,KIDNEY_TOTAL,24 h,1.9 g
same,LIVER,24 h,10.1 g
same,A/G,24 h,1.4
same,ALP,24 h,1811.2 IU/L
same,ALT,24 h,42.6 IU/L
same,AST,24 h,75.8 IU/L
same,BUN,24 h,16.6 mg/dL
same,CRE,24 h,0.2 mg/dL
same,Ca,24 h,10.8 mg/dL
same,Cl,24 h,107.2 meq/L
same,DBIL,24 h,0.002 mg/dL
same,GLC,24 h,193 mg/dL
same,IP,24 h,7.2 mg/dL
same,K,24 h,4.2 meq/L
same,LDH,24 h,242.4 IU/L
same,Na,24 h,141.6 meq/L
same,PL,24 h,148.2 mg/dL
same,RALB,24 h,3.2 g/dL
same,TBIL,24 h,0.006 mg/dL
same,TC,24 h,74.2 mg/dL
same,TG,24 h,114 mg/dL
same,TP,24 h,5.6 g/dL
same,gamma-GTP,24 h,1.2 IU/L
